How the values were obtained:
[1] = biological target: Replicase polyprotein 1ab (Severe acute respiratory syndrome coronavirus 2, UniProt P0DTD1); assay: Inhibition of untagged SARS-CoV-2 JPN/TY/WK-521 Main protease using FRET-based UIVT3 as substrate by continuous fluorescence assay
SARS-CoV-2 [2] = assay: Antiviral activity against SARS-CoV-2 JPN/TY/WK-521 infected in Vero E6 cells preincubated with cells for 1 day followed by viral infection and measured after 3 days by qRT-PCR analysis; format: functional, organism-based; conditions: Severe acute respiratory syndrome coronavirus 2, JPN/TY/WK-521, Vero C1008
SARS-CoV-2 [3] = assay: Antiviral activity against SARS-CoV-2 hCoV-19/Japan/TKYS02037/2022 (omicron BA.2) infected in Vero E6 cells preincubated with cells for 1 day followed by viral infection and measured after 3 days by qRT-PCR analysis; format: functional, organism-based; conditions: Severe acute respiratory syndrome coronavirus 2, hCoV-19/Japan/TKYS02037/2022 (omicron BA.2), Vero C1008
SARS-CoV-2 [4] = assay: Antiviral activity against SARS-CoV-2 JPN/TY/WK-521 infected in Vero E6 cells assessed as inhibition of viral replication preincubated with cells for 1 day followed by viral infection and measured after 3 to 4 days by qRT-PCR analysis; format: functional, organism-based; conditions: Severe acute respiratory syndrome coronavirus 2, JPN/TY/WK-521, Vero C1008
SARS-CoV-2 [5] = assay: Antiviral activity against SARS-CoV-2 assessed as fold change relative to YH-53; format: functional, Severe acute respiratory syndrome coronavirus 2
[6] = Cytotoxicity against African green monkey Vero E6 cells incubated for 3 days by WST-8 assay; format: toxicity, cell-based, Vero C1008; conditions: chlorocebus sabaeus, time 3 day
[7] = Oral bioavailability in PXB mouse at 10 mg/kg measured for 24 hrs; format: ADME, organism-based; conditions: in vivo
SARS-CoV-2 [8] = assay: Antiviral activity against SARS-CoV-2 JPN/TY/WK-521 infected in Vero E6 cells assessed as fold change preincubated with cells for 1 day followed by viral infection and measured after 3 days by qRT-PCR analysis relative to TKB245; format: functional, Severe acute respiratory syndrome coronavirus 2; conditions: time 4 day
SARS-CoV-2 [9] = assay: Antiviral activity against SARS-CoV-2 infected in Vero E6 cells preincubated with cells for 1 day in absence of HCl followed by viral infection and measured after 3 days by qRT-PCR analysis; format: functional, organism-based; conditions: Severe acute respiratory syndrome coronavirus 2, Vero C1008
SARS-CoV-2 [10] = assay: Antiviral activity against SARS-CoV-2 infected in Vero E6 cells preincubated with cells for 1 day in presence of HCl treated compound followed by viral infection and measured after 3 days by qRT-PCR analysis; format: functional, organism-based; conditions: Severe acute respiratory syndrome coronavirus 2, Vero C1008
[11] = Stability of compound in 50% MeCN in H2O containing 0.05% trifluoroacetic acid assessed as (1R,2S,5S)-3-((S)-3,3-dimethyl-2-(2,2,2-trifluoroacetamido)butanoyl)-N-((S)-1-(4-fluorobenzo[d]thiazol-2-yl)-1-oxo-3-((S)-2-oxopyrrolidin-3-yl)propan-2-yl)-6,6-dimethyl-3-azabicyclo[3.1.0]hexane-2-carboxamide formation at 5 degreeC measured after 24 hrs by RP-HPLC analysis; format: physicochemical
[12] = Stability of compound in 50% MeCN in H2O incubated for 24 hrs at room temperature by RP-HPLC analysis; format: physicochemical
[13] = Stability of compound in DMSO incubated for 7 days at -18 degreeC by RP-HPLC analysis; format: physicochemical; conditions: 168 h; time 7 day
[14] = Cytotoxicity against African green monkey Vero E6 cells in presence of P-glycoprotein inhibitor, CP100356; format: toxicity, cell-based, Vero C1008; conditions: chlorocebus sabaeus, with CP100356 (P-glycoprotein inhibitor)
[15] = Cytotoxicity against human HeLa cells expressing ACE2 and TMPRSS2; format: toxicity, cell-based
[16] = Cytotoxicity against human A549-hACE2-TMPRSS2 cells; format: toxicity, cell-based
[17] = Cytotoxicity against human HepG2 cells; format: toxicity, cell-based
PBMC = assay: Cytotoxicity against human PBMC cells assessed as reduction in cell viability at 3 uM incubated for 12 days by CCK-8 assay; format: toxicity, cell-based; conditions: 288 h, time 12 day
MOLT-4 = assay: Cytotoxicity against human MOLT-4 cells assessed as reduction in cell viability at 3 uM incubated for 12 days by CCK-8 assay; format: toxicity, cell-based; conditions: molt-4, 288 h, time 12 day
MT2 = assay: Cytotoxicity against human MT2 cells assessed as reduction in cell viability at 3 uM incubated for 12 days by CCK-8 assay; format: toxicity, cell-based; conditions: mt2, 288 h, time 12 day
[18] = Mutagenicity in Salmonella typhimurium TA100 assessed as inhibition of bacterial growth at 0.152 to 333 ug incubated in presence of S9 fraction by micro-Ames test; format: toxicity, subcellular, Salmonella enterica subsp. enterica serovar Typhimurium; conditions: dose 0.152-333 µg
[19] = Mutagenicity in Salmonella typhimurium TA1535 assessed as inhibition of bacterial growth at 0.152 to 333 ug incubated in presence of S9 fraction by micro-Ames test; format: toxicity, subcellular, Salmonella enterica subsp. enterica serovar Typhimurium; conditions: dose 0.152-333 µg
[20] = Mutagenicity in Salmonella typhimurium TA98 assessed as inhibition of bacterial growth at 0.152 to 333 ug incubated in presence of S9 fraction by micro-Ames test; format: toxicity, subcellular, Salmonella enterica subsp. enterica serovar Typhimurium; conditions: dose 0.152-333 µg
[21] = Mutagenicity in Salmonella typhimurium TA1537 assessed as inhibition of bacterial growth at 0.152 to 333 ug incubated in presence of S9 fraction by micro-Ames test; format: toxicity, subcellular, Salmonella enterica subsp. enterica serovar Typhimurium; conditions: dose 0.152-333 µg
[22] = Mutagenicity in Escherichia coli WP2uvrA assessed as inhibition of bacterial growth at 0.152 to 333 ug incubated in presence of S9 fraction by micro-Ames test; format: toxicity, subcellular; conditions: dose 0.152-333 µg
[23] = Mutagenicity in Salmonella typhimurium TA100 assessed as inhibition of bacterial growth at 0.152 to 333 ug incubated in absence of S9 fraction by micro-Ames test; format: toxicity, Salmonella enterica subsp. enterica serovar Typhimurium; conditions: in vivo; dose 0.152-333 µg
[24] = Mutagenicity in Salmonella typhimurium TA1535 assessed as inhibition of bacterial growth at 0.152 to 333 ug incubated in absence of S9 fraction by micro-Ames test; format: toxicity, Salmonella enterica subsp. enterica serovar Typhimurium; conditions: in vivo; dose 0.152-333 µg
[25] = Mutagenicity in Salmonella typhimurium TA98 assessed as inhibition of bacterial growth at 0.152 to 333 ug incubated in absence of S9 fraction by micro-Ames test; format: toxicity, Salmonella enterica subsp. enterica serovar Typhimurium; conditions: in vivo; dose 0.152-333 µg
[26] = Mutagenicity in Salmonella typhimurium TA1537 assessed as inhibition of bacterial growth at 0.152 to 333 ug incubated in absence of S9 fraction by micro-Ames test; format: toxicity, Salmonella enterica subsp. enterica serovar Typhimurium; conditions: in vivo; dose 0.152-333 µg
[27] = Mutagenicity in Escherichia coli WP2uvrA assessed as inhibition of bacterial growth at 0.152 to 333 ug incubated in absence of S9 fraction by micro-Ames test; format: toxicity; conditions: in vivo; dose 0.152-333 µg
[28] = Mutagenicity in Salmonella typhimurium TA100 assessed as fold increase in number of revertants at 0.152 to 333 ug incubated in presence of S9 fraction by micro-Ames test relative to control; format: toxicity, subcellular, Salmonella enterica subsp. enterica serovar Typhimurium; conditions: dose 0.152-333 µg
[29] = Mutagenicity in Salmonella typhimurium TA1535 assessed as fold increase in number of revertants at 0.152 to 333 ug incubated in presence of S9 fraction by micro-Ames test relative to control; format: toxicity, subcellular, Salmonella enterica subsp. enterica serovar Typhimurium; conditions: dose 0.152-333 µg
[30] = Mutagenicity in Salmonella typhimurium TA98 assessed as fold increase in number of revertants at 0.152 to 333 ug incubated in presence of S9 fraction by micro-Ames test relative to control; format: toxicity, subcellular, Salmonella enterica subsp. enterica serovar Typhimurium; conditions: dose 0.152-333 µg
[31] = Mutagenicity in Salmonella typhimurium TA1537 assessed as fold increase in number of revertants at 0.152 to 333 ug incubated in presence of S9 fraction by micro-Ames test relative to control; format: toxicity, subcellular, Salmonella enterica subsp. enterica serovar Typhimurium; conditions: dose 0.152-333 µg
[32] = Mutagenicity in Escherichia coli WP2uvrA assessed as fold increase in number of revertants at 0.152 to 333 ug incubated in presence of S9 fraction by micro-Ames test relative to control; format: toxicity, subcellular; conditions: dose 0.152-333 µg
[33] = Mutagenicity in Salmonella typhimurium TA100 assessed as fold increase in number of revertants at 0.152 to 333 ug incubated in absence of S9 fraction by micro-Ames test relative to control; format: toxicity, Salmonella enterica subsp. enterica serovar Typhimurium; conditions: in vivo; dose 0.152-333 µg
[34] = Mutagenicity in Salmonella typhimurium TA1535 assessed as fold increase in number of revertants at 0.152 to 333 ug incubated in absence of S9 fraction by micro-Ames test relative to control; format: toxicity, Salmonella enterica subsp. enterica serovar Typhimurium; conditions: in vivo; dose 0.152-333 µg
[35] = Mutagenicity in Salmonella typhimurium TA98 assessed as fold increase in number of revertants at 0.152 to 333 ug incubated in absence of S9 fraction by micro-Ames test relative to control; format: toxicity, Salmonella enterica subsp. enterica serovar Typhimurium; conditions: in vivo; dose 0.152-333 µg
[36] = Mutagenicity in Salmonella typhimurium TA1537 assessed as fold increase in number of revertants at 0.152 to 333 ug incubated in absence of S9 fraction by micro-Ames test relative to control; format: toxicity, Salmonella enterica subsp. enterica serovar Typhimurium; conditions: in vivo; dose 0.152-333 µg
[37] = Mutagenicity in Escherichia coli WP2uvrA assessed as fold increase in number of revertants at 0.152 to 333 ug incubated in absence of S9 fraction by micro-Ames test relative to control; format: toxicity; conditions: in vivo; dose 0.152-333 µg
Vero C1008 = assay: Cytotoxicity against African green monkey Vero E6 cells infected with SARS-CoV-2 WK-521 upto 100 uM incubated for 3 days by immunostaining analysis; format: toxicity, cell-based; conditions: chlorocebus sabaeus, vero c1008, 72 h, time 3 day

## CC(C)(C)[C@H](NC(=O)C(F)(F)F)C(=O)N1C[C@H]2[C@@H]([C@H]1C(=S)N[C@@H](C[C@@H]1CCNC1=O)C(=O)c1nc3c(F)cccc3s1)C2(C)C
[1]
  IC50: 88 nM
SARS-CoV-2 [2]
  EC50: 310 nM
SARS-CoV-2 [3]
  EC50: 160 nM
SARS-CoV-2 [4]
  EC50: 220 nM
SARS-CoV-2 [5]
  fold change (FC): 0.085
[6]
  CC50 at 72 h: > 100000 nM
[7]
  bioavailability: 72%
SARS-CoV-2 [8]
  fold change (FC): 11
SARS-CoV-2 [9]
  EC50: 310 nM
SARS-CoV-2 [10]
  EC50: 320 nM
[11]
  Stability: Unstable
[12]
  Stability: Stable
[13]
  Stability: Stable
[14]
  CC50: > 100000 nM
[15]
  CC50: > 100000 nM
[16]
  CC50: > 100000 nM
[17]
  CC50: > 200000 nM
PBMC
  Activity: Non-Toxic
MOLT-4
  Activity: Non-Toxic
MT2
  Activity: Non-Toxic
[18]
  Activity: Non-Toxic
[19]
  Activity: Non-Toxic
[20]
  Activity: Non-Toxic
[21]
  Activity: Non-Toxic
[22]
  Activity: Non-Toxic
[23]
  Activity: Non-Toxic
[24]
  Activity: Non-Toxic
[25]
  Activity: Non-Toxic
[26]
  Activity: Non-Toxic
[27]
  Activity: Non-Toxic
[28]
  fold change (FC): > 2
[29]
  fold change (FC): > 2
[30]
  fold change (FC): > 2
[31]
  fold change (FC): > 2
[32]
  fold change (FC): > 2
[33]
  fold change (FC): > 2
[34]
  fold change (FC): > 2
[35]
  fold change (FC): > 2
[36]
  fold change (FC): > 2
[37]
  fold change (FC): > 2
Vero C1008
  Activity: Non-Toxic

From ChEMBL document CHEMBL5365531, “Structure-Activity Relationship Studies of SARS-CoV-2 Main Protease Inhibitors Containing 4-Fluorobenzothiazole-2-carbonyl Moieties” (J Med Chem, 2023)
